Laboratory results as given in ChEMBL document CHEMBL5584321, “Chemoenzymatic Synthesis of DNP-Functionalized FGFR1-Binding Peptides as Novel Peptidomimetic Immunotherapeutics for Treating Lung Cancer” (J Med Chem, 2024).
The source made the active and inactive calls. The calls are words filed in the database; no cut-off is given here. Where a SMILES comes first, the peptide text is derived from it. The star is where a group is joined. X1 = O=[N+]([O-])c1ccc(OCCOCCOCCOCCOCCOCCN*)c([N+](=O)[O-])c1; FITC = O=C1OC2(c3ccc(O)cc3Oc3cc(O)ccc32)c2ccc(NC(=S)*)cc21; X2 = O=[N+]([O-])c1ccc(OCCOCCOCCN*)c([N+](=O)[O-])c1; X3 = O=[N+]([O-])c1ccc(OCCN*)c([N+](=O)[O-])c1; Ahx = NCCCCCC(=O)O

How the values were obtained:
[1] = system: L6; test: Binding affinity to FGFR1c in rat L6 cells assessed as increase in green fluorescence signal incubated for 1 hr by Alexa-488 staining based confocal fluorescence microscopic analysis; format: cell-based
[2] = system: L6; test: Induction of apoptosis in FGF2-induced rat L6 cells stably expressing human full-length FGFR1c assessed as downregulation of BCL-2 expression at 50 uM incubated for 24 hrs by Western blotting analysis; format: functional, cell-based
[3] = system: NCI-H1581; test: Binding affinity to FGFR1c in human NCI-H1581 cells assessed as fluorescence intensity at 10 uM by antibody recruiting based flow cytometry; format: cell-based
[4] = system: NCI-H1581; test: Binding affinity to FGFR1c in human NCI-H1581 cells assessed as increase in green fluorescence signal incubated for 1 hr by Alexa-488 staining based confocal fluorescence microscopic analysis; format: cell-based
[5] = system: L6; test: Binding affinity to human full-length wild type FGFR1c stably expressed in rat L6 cells assessed as fold change in fluorescence intensity at 10 uM by antibody recruiting based flow cytometry relative to Pep1; format: cell-based
[6] = system: L6; test: Binding affinity to human full-length wild type FGFR1c stably expressed in rat L6 cells assessed as increase in green fluorescence signal incubated for 1 hr by Alexa-488 staining based confocal fluorescence microscopic analysis; format: cell-based
[7] = system: L6; test: Antiproliferative activity against FGF2-induced rat L6 cells stably expressing human full-length FGFR1c assessed as inhibition of cell growth at 100 uM incubated for 36 hrs by CCK-8 assay relative to control; format: functional
[8] = system: NCI-H1581; test: Binding affinity to FGFR1c in human NCI-H1581 cells assessed as fold change in fluorescence intensity at 10 uM by antibody recruiting based flow cytometry relative to Pep1; format: cell-based
[9] = system: NCI-H1581; test: Induction of cell lysis in human NCI-H1581 cells at 1 uM incubated for 1 hr by complement dependent cytotoxicity based CCK-8 assay relative to control; format: functional
[10] = Binding affinity to CM5 sensor chip immobilized human full-length wild type FGFR1c assessed as dissociation constant by SPR analysis
[11] = system: NCI-H1581; test: Binding affinity to FGFR1c in human NCI-H1581 cells assessed as increase in fluorescence signal by antibody recruiting based flow cytometry; format: cell-based
[12] = system: L6; test: Induction of cell lysis in rat L6 cells stably expressing human full-length FGFR1c at 1 uM incubated for 1 hr by complement dependent cytotoxicity based CCK-8 assay relative to control; format: functional
[13] = system: L6; test: Binding affinity to human full-length wild type FGFR1c stably expressed in rat L6 cells assessed as fluorescence intensity at 10 uM by antibody recruiting based flow cytometry; format: cell-based
[14] = system: L6; test: Antiproliferative activity against FGF2-induced rat L6 cells stably expressing human full-length FGFR1c assessed as inhibition of cell growth incubated for 36 hrs by CCK-8 assay; format: functional, cell-based
[15] = system: L6; test: Induction of apoptosis in FGF2-induced rat L6 cells stably expressing human full-length FGFR1c assessed as upregulation of cleaved caspase-3 expression at 50 uM incubated for 24 hrs by Western blotting analysis; format: functional, cell-based
[16] = system: L6; test: Induction of cell lysis in rat L6 cells at 1 uM incubated for 1 hr by complement dependent cytotoxicity based CCK-8 assay relative to control; format: functional
[17] = system: L6; test: Induction of apoptosis in FGF2-induced rat L6 cells stably expressing human full-length FGFR1c assessed as upregulation of cleaved PARP expression at 50 uM incubated for 24 hrs by Western blotting analysis; format: functional, cell-based
[18] = system: L6; test: Binding affinity to human full-length wild type FGFR1c stably expressed in rat L6 cells assessed as increase in fluorescence signal by antibody recruiting based flow cytometry; format: cell-based
[19] = system: L6; test: Binding affinity to FGFR1c in rat L6 cells assessed as increase in green fluorescence signal at 2 uM by DAPI staining based confocal […] microscopic analysis; format: cell-based
[20] = Tmax in immunized Sprague-Dawley rat at 1.5 mg/kg,SC administration measured upto 24 hrs by fluorescence based microplate reader assay; format: ADME, organism-based; settings: in vivo
[21] = system: NCI-H1581; test: Antitumor activity against human NCI-H1581 cells xenografted BALB/c mouse model assessed as inhibition of tumor growth at 20 mg/kg,SC administrated once daily for 12 days relative to control; format: functional; settings: NCI-H1581, 288 h, time 12 day
[22] = AUC in immunized Sprague-Dawley rat at 1.5 mg/kg,SC administration measured upto 24 hrs by fluorescence based microplate reader assay; format: ADME, organism-based; settings: in vivo
[23] = system: L6; test: Binding affinity to human full-length wild type FGFR1c stably expressed in rat L6 cells assessed as increase in green fluorescence signal at 2 uM by DAPI staining based confocal […] microscopic analysis; format: cell-based
[24] = system: L6; test: Induction of apoptosis in FGF2-induced rat L6 cells stably expressing human full-length FGFR1c assessed as upregulation of cleaved caspase-3 expression incubated for 24 hrs by Western blotting analysis; format: functional, cell-based
[25] = Half life in immunized Sprague-Dawley rat at 1.5 mg/kg,SC administration measured upto 24 hrs by fluorescence based microplate reader assay; format: ADME, organism-based; settings: in vivo
[26] = system: L6; test: Induction of apoptosis in FGF2-induced rat L6 cells stably expressing human full-length FGFR1c assessed as upregulation of cleaved PARP expression incubated for 24 hrs by Western blotting analysis; format: functional, cell-based
[27] = Cmax in immunized Sprague-Dawley rat at 1.5 mg/kg,SC administration measured upto 24 hrs by fluorescence based microplate reader assay; format: ADME, organism-based; settings: in vivo

| Molecule | Activity [1] | Activity [2] | Flu intensity [3] | Activity [4] | fold change (FC) [5] | Activity [6] | inhibition at 100 µM [7] [%] | fold change (FC) [8] | Activity [9] [%] | Kd [10] [µM] | Activity [11] | Activity [12] [%] | Flu intensity [13] | Activity [14] | Activity [15] | Activity [16] | Activity [17] | Activity [18] | Activity [23] | other results |
| --- | --- | --- | --- | --- | --- | --- | --- | --- | --- | --- | --- | --- | --- | --- | --- | --- | --- | --- | --- | --- |
| CC(C)C[C@H](NC(=O)[C@H](C)NC(=O)[C@@H](NC(=O)[C@H](Cc1ccc(O)cc1)NC(=O)[C@H](Cc1c[nH]c2ccccc12)NC(=O)[C@H](CO)NC(=O)[C@H](CO)NC(=O)[C@H](Cc1ccc(O)cc1)NC(=O)[C@H](CCCCN)NC(=O)[C@H](CCCNC(=N)N)NC(=O)[C@H](CO)NC(=O)[C@H](CCCNC(=N)N)NC(=O)[C@@H](N)Cc1ccc(O)cc1)C(C)C)C(=O)N[C@@H](CCCCN)C(=O)N[C@@H](CCCNC(=N)N)C(=O)N[C@@H](CC(C)C)C(=O)N1CCC[C@H]1C(=O)N[C@@H](CCC(=O)O)C(=O)N[C@H](C(=O)NCC(=O)NCC(=O)NCC(=O)NCCOCCOCCOc1ccc([N+](=O)[O-])cc1[N+](=O)[O-])[C@@H](C)O (H-YRSRKYSSWYVALKRLPETGGG-X2) | inactive | Active | 0.5 10^3No_unit | Active | 33.4 | Active | 100 | 3.6 | 31.7 | 5.37 | Dose-Dependent Effect | 25.9 | 0.3 10^4No_unit | Dose-Dependent Effect | Active | inactive | Active | Dose-Dependent Effect |  |  |
| CC(C)C[C@H](NC(=O)[C@H](C)NC(=O)[C@@H](NC(=O)[C@H](Cc1ccc(O)cc1)NC(=O)[C@H](Cc1c[nH]c2ccccc12)NC(=O)[C@H](CO)NC(=O)[C@H](CO)NC(=O)[C@H](Cc1ccc(O)cc1)NC(=O)[C@H](CCCCN)NC(=O)[C@H](CCCNC(=N)N)NC(=O)[C@H](CO)NC(=O)[C@H](CCCNC(=N)N)NC(=O)[C@@H](N)Cc1ccc(O)cc1)C(C)C)C(=O)N[C@@H](CCCCN)C(=O)N[C@@H](CCCNC(=N)N)C(=O)N[C@@H](CC(C)C)C(=O)N1CCC[C@H]1C(=O)N[C@@H](CCC(=O)O)C(=O)N[C@H](C(=O)NCC(=O)NCC(=O)NCC(=O)NCCOc1ccc([N+](=O)[O-])cc1[N+](=O)[O-])[C@@H](C)O (H-YRSRKYSSWYVALKRLPETGGG-X3) | inactive | Active | 3.5 10^3No_unit | Active | 180 | Active | 100 | 22.4 | 35.8 | 5.95 | Dose-Dependent Effect | 29.3 | 1.6 10^4No_unit | Dose-Dependent Effect | Active | inactive | Active | Dose-Dependent Effect |  |  |
| CC(C)C[C@H](NC(=O)[C@H](CO)NC(=O)[C@H](C)NC(=O)[C@H](Cc1c[nH]c2ccccc12)NC(=O)[C@H](CCCCN)NC(=O)[C@H](CCCCN)NC(=O)[C@H](CCCNC(=N)N)NC(=O)[C@@H](NC(=O)[C@H](CO)NC(=O)[C@H](CCCNC(=N)N)NC(=O)[C@@H](N)CCCNC(=N)N)C(C)C)C(=O)N[C@@H](Cc1ccc(O)cc1)C(=O)N[C@@H](Cc1ccc(O)cc1)C(=O)N[C@@H](CO)C(=O)N[C@@H](Cc1ccc(O)cc1)C(=O)N[C@@H](CC(C)C)C(=O)N1CCC[C@H]1C(=O)N[C@@H](CCC(=O)O)C(=O)N[C@H](C(=O)NCC(=O)NCC(=O)NCC(=O)NCCOCCOCCOCCOCCOCCOc1ccc([N+](=O)[O-])cc1[N+](=O)[O-])[C@@H](C)O (H-RRSVRKKWASLYYSYLPETGGG-X1) |  |  |  |  |  | inactive |  |  |  |  |  |  |  |  |  |  |  |  |  |  |
| H-YRSRKYSSWYVALKRLPET-NH2 |  |  |  |  |  |  | 100 |  |  | 1.6 |  |  |  | Dose-Dependent Effect |  |  |  |  | Active | Activity [19]: inactive; Tmax [20]: 0.58 h; inhibition in vivo at 20 mg/kg [21]: 44.2%; AUC at 24 h [22]: 711 ng·h/mL; Activity [24]: Dose-Dependent Effect; half-life [25]: 2.12 h; Activity [26]: Dose-Dependent Effect; Cmax [27]: 205 ng/mL |
| CC(C)C[C@H](NC(=O)[C@H](CO)NC(=O)[C@H](C)NC(=O)[C@H](Cc1c[nH]c2ccccc12)NC(=O)[C@H](CCCCN)NC(=O)[C@H](CCCCN)NC(=O)[C@H](CCCNC(=N)N)NC(=O)[C@@H](NC(=O)[C@H](CO)NC(=O)[C@H](CCCNC(=N)N)NC(=O)[C@H](CCCNC(=N)N)NC(=O)CCCCCNC(=S)Nc1ccc2c(c1)C(=O)OC21c2ccc(O)cc2Oc2cc(O)ccc21)C(C)C)C(=O)N[C@@H](Cc1ccc(O)cc1)C(=O)N[C@@H](Cc1ccc(O)cc1)C(=O)N[C@@H](CO)C(=O)N[C@@H](Cc1ccc(O)cc1)C(N)=O ({FITC-Ahx}-RRSVRKKWASLYYSY-NH2) |  |  |  |  |  |  |  |  |  |  |  |  |  |  |  |  |  |  | inactive |  |
